Results published in patent US8753838B2, “Method for producing alcohol using bioethanol waste fermented solution” (Korea Institute of Science and Technology, priority 2010, dated 2014).
Entries after “also recorded” stand apart in the source; their conditions may differ.

Tests used:
[1] = system: Clostridium pasteurianum (C. pasteurianum DSM 525); assay: Alkaline agent for pH control of medium: growth and butanol production of Clostridium pasteurianum (Example 4); type: cell-based; conditions: for cell growth (order of alkaline agents): medium of Example 1 with 10 g/L lactic acid, pH adjusted to 6.5 using each alkaline agent
Source text: In the experiment for evaluating the effect of lactic acid, acetic acid and ethanol on the growth of Clostridium pasteurianum (C. pasteurianum DSM 525), sodium hydroxide (NaOH) was used to adjust the pH of the medium. Since the ethanol waste fermented solution has a pH of 4-5, the pH needs to be controlled using an alkaline agent in order to produce butanol using the Clostridium pasteurianum (C. pasteurianum DSM 525). In addition to sodium hydroxide, potassium hydroxide (KOH), calcium hydroxide (Ca(OH)2), ammonia water (NH4OH), etc. are available as the alkaline agent. It was investigated whether the growth of Clostridium pasteurianum (C. pasteurianum DSM 525) is affected by the alkaline agents. For this purpose, after adding lactic acid (10 g/L) to the medium of Example 1, pH was adjusted to 6.5 using each alkaline agent.

[2] = system: Clostridium pasteurianum (DSM 525); assay: Effect of lactic acid, acetic acid and ethanol on growth and butanol production of Clostridium pasteurianum in glycerol medium (Example 1); type: cell-based; conditions: for inhibition of the growth of Clostridium pasteurianum (OD600): added to the medium up to 10 g/L, pH 6.5, 37° C.
Procedure: The butanol-producing bacterium Clostridium pasteurianum (DSM 525) was acquired from the DSMZ (Germany). The medium used for experiment was prepared with primarily distilled water (1 L) by adding the following ingredients: glycerol (30 g), K2HPO4 (0.5 g), KH2PO4 (0.5 g), MnSO4.H2O (0.01 g), MgSO4.7H2O (0.2 g), FeSO4.7H2O (0.01 g), NaCl (0.01 g), yeast extract (1 g), (NH4)2SO4 (2 g), MES (19.52 g), biotin (0.00001 g), thiamine (0.001 g) and p-aminobenzoic acid (0.001 g).
After adding lactic acid (C3H6O3, 0-14.6 g/L), acetic acid (C2H4O2, 0-10 g/L) or ethanol (C2H60, 0-20 g/L) to the medium, the pH was adjusted to 6.5 using potassium hydroxide (KOH) or sodium hydroxide (NaOH). After placing the medium (50 mL) in a 125-mL serum bottle and removing oxygen by blowing in argon gas, the bottle was sealed with a butyl rubber stopper and an aluminum cap. After sterilizing under high pressure and inoculating Clostridium pasteurianum cultured for 1-2 days at 5% (v/v), the bacterium was cultured at 37° C. while shaking at 130 rpm.
The cell growth was determined by measuring absorbance (optical density) at 600 nm (OD600).

SMILES | cell growth (order of alkaline agents) [1] | inhibition of the growth of Clostridium pasteurianum (OD600) [2] | further results
[K+].[OH-] [potassium hydroxide, potassium hydroxide (KOH)] | faster in the order of calcium hydroxide, potassium hydroxide, ammonia water and sodium hydroxide |  | 
CC(O)C(=O)O (stereo not drawn) [Lactic acid, lactic acid] |  | did not result in severe inhibition | production of butanol ([2]; lactic acid added (10 g/L or less) compared to when not added): improved butanol-producing effect; also recorded: improved production of butanol
[Ca+2].[OH-].[OH-] [calcium hydroxide, calcium hydroxide (Ca(OH)2)] | faster in the order of calcium hydroxide, potassium hydroxide, ammonia water and sodium hydroxide |  | 
N [ammonia water, ammonia water (NH4OH)] | faster in the order of calcium hydroxide, potassium hydroxide, ammonia water and sodium hydroxide |  | 
CC(=O)O [acetic acid] |  | did not result in severe inhibition | 
[Na+].[OH-] [sodium hydroxide, sodium hydroxide (NaOH)] | faster in the order of calcium hydroxide, potassium hydroxide, ammonia water and sodium hydroxide |  | 
[Na] [sodium] |  |  | growth of the microorganism ([1]; as compared to potassium): inhibits the growth
CCO [ethanol] |  | did not result in severe inhibition | 
